Measurements from publication PMC8425032, “Functional characterization of a highly specific L-arabinose transporter from Trichoderma reesei” (Microbial Cell Factories, 2021).

What was measured:
Type in all cases: cell-based
[1] = target: T1, Trire2_104072 (Trichoderma reesei, UniProt Q1EG32); assay: inhibition of […]-L-arabinose uptake, yeast cells; conditions: fivefold excess over 0.167 mM labelled L-arabinose, pH 6.5, 28 °C
T1 construct: gene xlt1; full-length RUT-C30 version, yeast codon-optimised synthetic gene; no tag mentioned; P388H version XLT1 from plasmid B1687
T1 sequence (Q1EG32 entry or part of it): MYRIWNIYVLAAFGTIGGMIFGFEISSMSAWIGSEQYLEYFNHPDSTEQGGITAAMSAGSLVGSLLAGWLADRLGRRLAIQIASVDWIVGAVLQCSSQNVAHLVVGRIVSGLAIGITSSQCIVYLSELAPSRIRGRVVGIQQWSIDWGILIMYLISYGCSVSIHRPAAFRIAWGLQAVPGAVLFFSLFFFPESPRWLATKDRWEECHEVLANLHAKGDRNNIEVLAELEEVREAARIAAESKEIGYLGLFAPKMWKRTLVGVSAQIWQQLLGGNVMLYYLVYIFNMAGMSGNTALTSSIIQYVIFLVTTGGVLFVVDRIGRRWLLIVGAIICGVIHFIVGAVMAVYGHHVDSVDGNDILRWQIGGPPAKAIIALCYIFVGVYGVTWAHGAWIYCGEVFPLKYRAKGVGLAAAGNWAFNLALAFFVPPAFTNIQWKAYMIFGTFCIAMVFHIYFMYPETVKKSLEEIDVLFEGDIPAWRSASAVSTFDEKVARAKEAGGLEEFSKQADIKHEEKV

[2] = target: T2, Trire2_104072 (Trichoderma reesei, UniProt Q1EG32, H388P, form not given); assay: inhibition of […]-L-arabinose uptake, yeast cells; conditions: 833 µM; fivefold excess over 0.167 mM labelled L-arabinose, pH 6.5, 28 °C
T2 construct: gene xlt1; full-length RUT-C30 version, yeast codon-optimised synthetic gene; no tag mentioned; P388H version XLT1 from plasmid B1687
T2 sequence (Q1EG32 entry or part of it H388P, form open): as the sequence (Q1EG32 entry or part of it) above, with H388P counted along it

[3] = target: T2, Trire2_104072; assay: two-electrode voltage clamp, sugar-induced current, Xenopus oocytes; conditions: pH 5.5, -50 mV, sodium-free ND-96 buffer; proton symport
[4] = target: T3, P. chrysogenum AraT (Penicillium rubens, UniProt B6HE12); assay: […]-L-arabinose uptake, yeast cells; conditions: 0.167 mM L-arabinose at pH 6.5 and 5 mM at pH 4.5; 28 °C; labelled compound
T3 construct: gene Pc20g01790; no tag mentioned
T3 sequence (B6HE12 1-511): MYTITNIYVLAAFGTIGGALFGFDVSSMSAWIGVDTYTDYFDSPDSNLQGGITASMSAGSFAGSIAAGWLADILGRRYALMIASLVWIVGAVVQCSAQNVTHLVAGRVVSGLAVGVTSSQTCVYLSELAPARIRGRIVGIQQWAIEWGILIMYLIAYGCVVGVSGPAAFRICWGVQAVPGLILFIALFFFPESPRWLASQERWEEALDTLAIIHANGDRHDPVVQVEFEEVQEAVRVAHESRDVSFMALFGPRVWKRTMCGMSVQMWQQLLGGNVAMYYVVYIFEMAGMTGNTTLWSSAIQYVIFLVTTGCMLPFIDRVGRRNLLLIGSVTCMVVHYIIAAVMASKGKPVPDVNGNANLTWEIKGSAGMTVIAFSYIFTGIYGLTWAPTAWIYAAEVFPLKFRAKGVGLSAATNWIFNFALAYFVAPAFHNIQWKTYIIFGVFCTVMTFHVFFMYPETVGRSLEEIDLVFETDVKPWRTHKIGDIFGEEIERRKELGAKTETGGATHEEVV

[5] = target: T4, A. thaliana STP7 (Arabidopsis thaliana, UniProt O04249); assay: […]-L-arabinose uptake, yeast cells; conditions: 5 mM L-arabinose, sodium citrate pH 4.5, 28 °C; labelled compound
T4 construct: no tag mentioned
T4 sequence (O04249 1-513): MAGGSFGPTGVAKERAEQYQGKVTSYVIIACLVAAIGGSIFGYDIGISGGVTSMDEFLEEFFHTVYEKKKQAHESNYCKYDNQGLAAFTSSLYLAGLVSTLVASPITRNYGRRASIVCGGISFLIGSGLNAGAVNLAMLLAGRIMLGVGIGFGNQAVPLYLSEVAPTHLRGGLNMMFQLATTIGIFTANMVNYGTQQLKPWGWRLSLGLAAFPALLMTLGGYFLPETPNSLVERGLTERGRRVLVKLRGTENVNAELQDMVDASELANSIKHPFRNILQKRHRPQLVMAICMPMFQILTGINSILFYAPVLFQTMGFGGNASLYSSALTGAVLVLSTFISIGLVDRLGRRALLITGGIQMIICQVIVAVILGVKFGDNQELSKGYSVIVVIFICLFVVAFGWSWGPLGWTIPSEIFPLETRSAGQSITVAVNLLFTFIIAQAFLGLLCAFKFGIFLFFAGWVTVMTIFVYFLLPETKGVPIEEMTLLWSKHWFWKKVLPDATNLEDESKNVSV

Compound: OC[C@H]1OC(O)[C@H](O)[C@@H](O)[C@@H]1O (stereo partly drawn) [D-glucose]
- % inhibition at 0.833 mM [1]: 4.5±17.6%
- Inhibition of L-arabinose uptake by competing sugar (glucose in 22.1, xylose in 22.2) [2]: 0±8.2%

Compound: OC1OC[C@@H](O)[C@H](O)[C@H]1O (stereo partly drawn) [D-xylose]
- Km [3]: 9.16 ± 3.35 mM
- % inhibition at 0.833 mM [1]: 13.4±7.9%
- Inhibition of L-arabinose uptake by competing sugar (glucose in 22.1, xylose in 22.2) [2]: 10.9±6.3%

Compound: OC1OC[C@H](O)[C@H](O)[C@H]1O (stereo partly drawn) [L-arabinose]
- 14C-L-arabinose uptake, yeast cells [4]: XLT1 or P. chrysogenum AraT had significantly higher L-arabinose uptake rates than the control strain
- Km [3]: 0.207 ± 0.079 mM
- 14C-L-arabinose uptake, yeast cells [5]: The strain expressing A. thaliana STP7 had also significantly higher uptake
